In US10973776B1, “Loteprednol etabonate nanoparticles in thermoreversible gels for enhanced therapeutics” (University of South Florida, priority 2015, dated 2021):
“Also recorded” adds a separate entry of the source.

Experiments:
Assay type in all cases: cell-based, Human
[1] = system: ARPE-19 cells; assay: MTT cytotoxicity assay of TA DDS; settings: 10 μM, 24 h
Method: (§1) Human retinal pigment epithelium, ARPE-19, cells (ATCC # CRL-2302) were grown in 1:1 Dulbecco's Modified Eagle's Medium and Ham's F12 Medium (Mediated, Inc., Manassas, Va.) with 10% fetal bovine serum and 100 Um′ penicillin/streptomycin (Sigma Aldrich, St. Louis, Mo.). The cultures were maintained in a humid environment at 5% CO2 and 37° C.
The cytotoxicity of the DDS was assessed in ARPE-19 cells by the 3-(4,5-dimethylthiazol-2-yl)-2,5-diphenyltetrazolium bromide salt (MTT) assay. Briefly, cells were seeded in 24-well plates at a density of 5×10^4 cells/ml for 24 h to achieve confluency before treatment. Cells were exposed to free TA, TA NPs, and TA NP-TR gel at varying concentrations (0, 1, 10, 100 μM) for 24 h after which the MTT assay was performed. Cell culture media were aspirated, and […] of MTT reagent solution (1 mg/ml) was added to each well. Cells were incubated at 37° C. and 5% CO2 for 4 h, after which the MTT reagent solution was aspirated and 1 mL of DMSO was added to each well. Plates were allowed to shake gently for 10 min before being read by Synergy H4 plate reader (Biotek Industries, Inc., Winooski, Vt.) at absorbance of 570 nm.

[2] = system: VEGF secretion in ARPE-19 cells; assay: VEGF secretion ELISA, TA formulations; settings: 10 μM, 72 h
Method: Human retinal pigment epithelium, ARPE-19, cells (ATCC # CRL-2302) were grown in 1:1 Dulbecco's Modified Eagle's Medium and Ham's F12 Medium (Mediated, Inc., Manassas, Va.) with 10% fetal bovine serum and 100 Um′ penicillin/streptomycin (Sigma Aldrich, St. Louis, Mo.). The cultures were maintained in a humid environment at 5% CO2 and 37° C. ARPE-19 cells were seeded onto 24-well plates at 5×10^4 cells/ml and allowed to grow until confluence. On the day of study, cell culture media were replaced with 1% FBS experimental media and allowed to remain in quiescence for 12 h. The cellular monolayers were incubated with varying treatment concentrations of free TA solution (1, 10 and 100 μM), TA NPs (10 and 100 μM) and TA NP-TR gel (10 and 100 μM). Culture media were collected at 12 and 72 h. Secreted VEGF in collected culture media was quantified by the ELISA method (Human VEGFA ELISA kit, Thermo Scientific, Waltham, Mass.). The cell protein content was assayed using the BCA protein assay kit after lysing the cells, and VEGF secretion was normalized to total protein. Samples were read using the Synergy H4 plate reader (Biotek Industries, Inc., Winooski, Vt.) with absorbance at 450 nm minus absorbance at 550 nm.

[3] = system: ARPE-19 cells; assay: MTT cytotoxicity assay of LE DDS; settings: 1, 10, 100 μM, 24 hours
Method: as §1, with “(Mediatech,” for “(Mediated,”, “U/mL” for “Um′”
Cytotoxicity was assessed in ARPE-19 cells by the 3-(4,5-dimethylthiazol-2-yl)-2,5-diphenyltetrazolium bromide salt (MTT) assay. Briefly, cells were seeded in 24-well plates at a density of 5×10^4 cells/mL for 24 hours to achieve confluence before treatment. Cells were exposed to free LE solution, LE NPs, and LE NPs-TR gel at varying concentrations (0, 1, 10, 100 μM) for 24 hours after which the MTT assay was performed. Cell culture media were aspirated and 300 μL of MTT reagent solution (1 mg/mL) was added to each well. Cells were incubated at 37° C. and 5% CO2 for 4 hours, after which the MTT reagent solution was aspirated and 500 μL of DMSO was added to each well. Plates were allowed to shake gently for 10 minutes before being read by Synergy H4 plate reader (Biotek Industries, Inc., Winooski, Vt.) at absorbance of 570 nm.

[4] = system: VEGF secretion in ARPE-19 cells; assay: VEGF secretion ELISA, LE formulations
Method: as §1, with “(Mediatech,” for “(Mediated,”, “U/mL” for “Um′”
ARPE-19 cells were seeded onto 24-well plates at 5×10^4 cells/mL and allowed to grow until confluence. On the day of study, cell culture media were replaced with 1% FBS experimental media and allowed to remain in quiescence for 12 hours. The cellular monolayers were incubated with varying treatment concentrations of free LE solution (1, 10 μM), LE NPs (10 μM), and LE NPs-TR gel (10 μM). Culture media were collected at 12 and 72 hours. Secreted VEGF in collected culture media was quantified by the ELISA method (Human VEGFA ELISA kit, Thermo Scientific, Waltham, Mass.). The cell protein content was assayed using the BCA protein assay kit after lysing the cells and VEGF secretion was normalized to total protein. Samples were read by using the Synergy H4 plate reader (Biotek Industries, Inc., Winooski, Vt.) with absorbance at 450 nm minus absorbance at 550 nm.

| SMILES | MTT cytotoxicity vs untreated control cells [1] | suppression of VEGF expression [2] | MTT cytotoxicity vs untreated control cells [3] | MTT cytotoxicity vs untreated control cells ([3]; listed as free LE solution) | suppression of VEGF expression vs media control ([4]; 1 μM, 12 hours) | suppression of VEGF secretion vs control ([4]; 10 μM, 12 hours) | reduction of VEGF expression compared to control ([4]; within 12 hours, p<0.05, concentration not stated) |
| --- | --- | --- | --- | --- | --- | --- | --- |
| CC1(C)O[C@@H]2C[C@H]3[C@@H]4CCC5=CC(=O)C=C[C@]5(C)[C@@]4(F)[C@@H](O)C[C@]3(C)[C@]2(C(=O)CO)O1 [free TA, Triamcinolone acetonide] | induced significant cell death; also recorded: cytotoxic | no significant effect |  |  |  |  |  |
| CCOC(=O)O[C@]1(C(=O)OCCl)CC[C@H]2[C@@H]3CCC4=CC(=O)C=C[C@]4(C)[C@H]3[C@@H](O)C[C@@]21C [free LE, Loteprednol etabonate] |  |  | no impact on cell viability | no cytotoxicity | showed reduction in VEGF expression | showed reduction in VEGF expression | significantly reduced VEGF expression |
